The source of these data is patent US4622312A, “Growth hormone releasing factor analogs” (Hoffmann-La Roche Inc., priority 1984, dated 1986).

No end group written: not given here.

Assay [1] has as its system rat pituitary cells in tissue culture. Kind of assay: stimulation of growth hormone production in rat pituitary cells in tissue culture (RIA for rat growth hormone). In kind it is cell-based. Here is the method:
Biological activity of the synthetic GRF(1-44)NH2 was identical to the natural GRF(1-44)NH2 which was isolated from a human pancreatic tumor of an individual suffering from acromegaly (Salk Institute standard hGRF--NH2 (NL-A-10)). The assay for biological activity, which is based on the ability to stimulate production of growth hormone in rat pituitary cells in tissue culture, was performed in the following manner.
Pituitaries from 30-40 male Sprague-Dawley rats (175 g) were removed aseptically after decapitation. The anterior lobes were collected, washed 3 times in sterile Hepes buffer (0.025M) (pH 7.35) and dispersed at 37° C. in 20-30 ml Hepes buffer (pH 7.35) containing collagenase (4 mg per ml) and Dispase (Protease grade II, 2 mg per ml). After gentle 100-110-min. vortexing and trituration by Pasteur pipette, the dispersed cells were separated by centrifugation (150×g, 4 min) and re-suspended in Hepes buffer containing neuraminidase (8 μg/ml), and 200 µg/ml ethylenedinitrisotetraacetic acid (EDTA) disodium salt pH 7.35, for 10 min. The cells were washed twice with plating medium and plated on multiwell-plates (1.5×10^5 cells per ml) using the following defined medium: F-12/DMEM/(6:3:1) (Gibco: 430-1700/430-1600/320-2591) with 2 g BSA/l., 2.38 g Hepes/1.50 mg PSN antibiotic mixture (Gibco Laboratories). The medium in each well was supplemented either with a sample of the novel GRF peptide or natural GRF(1-44)--NH2 at concentrations ranging from 0.8 to 200 fmol. per ml. of medium. Control wells contained no supplement. Plating was done with this medium added with 2% fetal calf serum to ensure rapid fixation of the cells. On the fourth day the cells were washed twice with the defined medium without fetal calf serum. Finally 900 μl of defined medium was added to each well plus 100 μl of the same medium containing each individual treatment, in triplicate. After 4 hours of incubation the medium was collected and diluted as required to conduct radioimmunoassay (RIAs) for rat growth hormone. […]

The conditions of assay [2]: Rivier and Vale et al., Nature 300, 276-278 (1982); cited from earlier work.

Turning to `CC[C@H](C)[C@H](NC(=O)[C@H](C)NC(=O)[C@H](CC(=O)O)NC(=O)[C@H](C)NC(=O)[C@@H](N)Cc1ccc(O)cc1)C(=O)N[C@@H](Cc1ccccc1)C(=O)N[C@H](C(=O)N[C@@H](CC(N)=O)C(=O)N[C@@H](CO)C(=O)N[C@@H](Cc1ccc(O)cc1)C(=O)N[C@@H](CCCNC(=N)N)C(=O)N[C@@H](CCCCN)C(=O)N[C@H](C(=O)N[C@@H](CC(C)C)C(=O)NCC(=O)N[C@@H](CCC(N)=O)C(=O)N[C@@H](CC(C)C)C(=O)N[C@@H](CO)C(=O)N[C@@H](C)C(=O)N[C@@H](CCCNC(=N)N)C(=O)N[C@@H](CCCCN)C(=O)N[C@@H](CC(C)C)C(=O)N[C@@H](CC(C)C)C(=O)N[C@@H](CCC(N)=O)C(=O)N[C@@H](CC(=O)O)C(=O)N[C@H](C(=O)N[C@@H](CCSC)C(=O)N[C@@H](CO)C(=O)N[C@@H](CCCNC(=N)N)C(=O)N[C@@H](CCC(N)=O)C(=O)N[C@@H](CCC(N)=O)C(=O)NCC(=O)N[C@@H](CCC(=O)O)C(=O)N[C@@H](CO)C(=O)N[C@@H](CC(N)=O)C(=O)N[C@@H](CCC(N)=O)C(=O)N[C@@H](CCC(=O)O)C(=O)N[C@@H](CCCNC(=N)N)C(=O)NCC(=O)N[C@@H](C)C(=O)N[C@@H](CCCNC(=N)N)C(=O)N[C@@H](C)C(=O)N[C@@H](CCCNC(=N)N)C(=O)N[C@@H](CC(C)C)C(N)=O)[C@@H](C)CC)C(C)C)[C@@H](C)O` [GRF(1-44)NH2], the “biological activity compared with natural GRF(1-44)NH2 (Salk Institute standard hGRF-NH2 (NL-A-10))” value in assay [1] (synthetic versus natural peptide isolated from a human pancreatic tumor) is on record as “identical”.
Consider GRF(1-29)NH2, for which the “intrinsic activity and potency in vitro” value in assay [2] is “full intrinsic activity and potency”.
As to “YADAIFTNSYRKVLAQLSARKLLQDIMSR-NH2 [(Ala^15)-GRF(1-29)NH2, [Ala^15]-hGRF(1-29)-NH2]”, the “potency relative to GRF(1-29)NH2 (unsubstituted shortened GRF)” value in assay [1] (growth hormone release, 4 hours of incubation) is recorded as 4.1 times. Further, the “potency relative to GRF (1-44)NH2” value in assay [1] (on a weight for weight basis, growth hormone release, 4 hours of incubation) came to 5.1 times.
